{"source": "patent US8729048B2", "about": "“Methods and materials for assessing responsiveness to PARP inhibitors and platinating agents” (Mayo Foundation for Medical Education and Research, priority 2011, dated 2014)", "format_in_all_cases": "cell-based", "key": {"[1]": {"test_system": "DNA-PK substrates (DNA-PKcs Thr2609, Histone H2AX Ser139) in PEO1 cells", "assay": "Immunoblotting for phosphorylation of DNA-PK substrates", "details": "72 hours, with 20 μM ABT-888, 500 nM DNA-PKi or 5 μM ATMi", "protocol": "FIG. 2. DNA-PK is activated following PARP inhibitor exposure in PEO1 cells. (A) Western blots for poly(ADP-ribose) polymer (pADPr) and phosphorylation of DNA-PK substrates (DNA-PKcs autophosphorylation at Thr^2609 and Histone H2AX at Ser^139) in PEO1 cells following 72 hours exposure to increasing concentrations of ABT-888 (0, 0.625, 1.25, 2.5, 5, 10, 20, and 40 μM). Hsp90, total DNA-PKcs, and Histone H1 are used as loading controls. (B) Phosphorylation of DNA-PK substrates after treatment for 72 hours with diluent (0.2% DMSO, lanes 1 and 4), 500 nM DNA-PK inhibitor AZ12594248 (DNA-PKi, lanes 2 and 5), or 5 μM ATM inhibitor KU55933 (ATMi, lanes 3 and 6) alone (lanes 1-3) or in combination with 20 μM ABT-888 (lanes 4-6). (C) Quantitation of cells positive for phospho-H2AX foci in PEO1 and PEO4 cells, following treatment with DMSO, 500 nM DNA-PKi, 20 μM ABT-888 (ABT), ABT-888 and DNA-PKi, 50 μM Etoposide (Etop), or 5 Gy ionizing radiation (IR). Cells were exposed to ABT-888 and/or DNA-PKi for 72 hours, etoposide for 1 hour, or allowed to recover for 1 hour after IR. Results are reported as mean±SEM of 3 independent experiments. (D) Confocal images of PEO1 cells treated as in […]. Phospho-Ser^139-H2AX is shown in green, phospho-Thr^2609-DNA-PKcs in red, and Hoechst 33258 in blue.\nCells were washed twice with calcium- and magnesium-free Dulbecco's phosphate-buffered saline (PBS) and solubilized in 6 M guanidine hydrochloride containing 250 mM Tris-HCl, pH 8.5 at 20° C., 10 mM EDTA, 1% (v/v) 2-mercaptoethanol, and 1 mM freshly added phenylmethylsulfonyl fluoride. After preparation for electrophoresis as described elsewhere (Kaufmann et al., Blood, 89:2098-2104 (1997)), aliquots containing 50 μg of protein (determined by the bicinchoninic acid method—S10) were separated on SDS-polyacrylamide gels containing 8% (w/v) acrylamide, electrophoretically transferred to nitrocellulose, and probed with immunological reagents as described elsewhere (Kaufmann, Anal. Biochem., 296:283-286 (2001)). […]"}, "[2]": {"test_system": "BRCA2-deficient PEO1 cells", "assay": "Clonogenic assay, PEO1", "protocol": "(§1) FIG. 5. NHEJ is a major contributor to PARP inhibitor effects in BRCA2-deficient cells. (A) Western blots showing knockdown of Ku80 in PEO1 and PEO4 cells. (B) Clonogenic survival of PEO1 and PEO4 cells from (A), which were treated with the indicated ABT-888 concentration for 72 hours, washed, and allowed to form colonies. (C) Western blots following treatment with siRNA targeting luciferase (control), Ku80, PARP1, or both Ku80 and PARP1. (D) Clonogenic viability of PEO 1 and PEO4 cells from (C). Following knockdown, cells were plated onto triplicate plates and allowed to form colonies. (E) Clonogenic survival of PEO1 cells following Artemis knockdown. After treatment with the indicated siRNA, plates were treated with indicated concentration of ABT-888 for 72 hours, washed, and allowed to form colonies. Inset, Western blots showing knockdown using luciferase (control) or Artemis siRNAs in PEO1 cells. (F) Clonogenic survival of PEO1 and PEO4 cells treated for 72 hours with ABT-888 in combination with diluent or 500 nM DNA-PKi. All results are reported as means of triplicate plates±SEM, and are representative of 3 independent experiments.\nFIG. 13. DNA-PK inhibition diminishes the lethality of multiple PARP inhibitors in PEO1 cells. (A) Representative clonogenic plates after PEO1 cells were treated with ABT-888 (0, 5, or 20 μM) with or without 500 nM DNA-PKi. (B, C) Bar graphs comparing clonogenic survival of PEO1 cells exposed to two PARP inhibitors with or without 500 nM DNA-PKi. The PARP inhibitors used for these assays are ABT-888 (B) and AZD2281/olaparib (C). Results are reported as mean±SEM of triplicate plates.\nFIG. 18. Artemis knockdown confers resistance to PARP inhibition and cisplatin in BRCA2-deficient/mutant cells. Clonogenic survival assays of PEO1 shRNA lines continuously exposed to ABT-888 (A) or cisplatin (B), or exposed to ionizing radiation (C). (D-F) Clonogenic survival assays of CAPAN1 shRNA lines exposed to ABT-888 (D), cisplatin (E), or exposed to ionizing radiation (F).\n(§2) Colony formation assays were performed on siRNA-transfected PEO1 and PEO4 cells 48 hours after the second transfection. Cells were trypsinized and plated at 750 cells/plate in triplicate 60-mm dishes containing medium A, allowed to grow 10-14 days, and stained with Coomassie Brilliant Blue. Colonies containing ≧50 cells were scored manually. To assess methyl methanesulfonate (MMS) sensitivity, PEO1 or PEO4 cells were incubated for 48 hours after the second siRNA treatment, plated onto 60-mm dishes, allowed to adhere for 4 hours, exposed to the indicated concentration of MMS (Sigma-Aldrich) for 1 hour, washed with sterile RPMI 1640, and allowed to grow into colonies in medium A. For drug treatment, cells (without siRNA) were allowed to adhere for 4-6 hours, then treated with the indicated concentrations of ABT-888 and/or AZ12594248 for 72 hours. Following drug treatment, cells were washed with drug-free RPMI 1640, cultured for 10-14 days in medium A, and stained. For HCC1937 and HCC1937/BRCA1 cells, a similar procedure was used with several changes: 1000 cells were plated in medium B, and treatment was continuous for 16-20 days. M059J and M059J+DNA-PKcs were plated at 1000 cells per plate in medium C and treated for 48 hours. GM16666 and 16667 were plated at 1000 cells per plate in medium D and treated for 48 hours."}, "[3]": {"test_system": "BRCA2-positive PEO4 cells", "assay": "Clonogenic assay, PEO4", "details": "XRCC1 siRNA, 1 hour exposure", "protocol": "as §1\nas §2, with “Following drug treatment, cells were washed with drug-free RPMI 1640, cultured for 10-14 days in medium A, and stained. For HCC1937 and HCC1937/BRCA1 cells, a similar procedure was used with several changes: 1000 cells were plated in medium B, and treatment was continuous for 16-20 days. M059J and M059J+DNA-PKcs were plated at 1000 cells per plate in medium C and treated for 48 hours. GM16666 and 16667 were plated at 1000 cells per plate in medium D and treated for 48 hours.” left out"}}, "data": [{"smiles": "O=c1cc(-c2cccc3c2Sc2ccccc2S3)oc(N2CCOCC2)c1", "note": "[KU55933]", "values": [{"measurement": "effect on ABT-888-induced phosphorylation of DNA-PKcs and H2AX", "setting": "[1]", "value": "did not"}]}, {"smiles": "COS(C)(=O)=O", "note": "[methane methylsulfonate, methyl methanesulfonate]", "values": [{"measurement": "clonogenic sensitivity after XRCC1 knockdown", "setting": "[2]; PEO1 cells, XRCC1 siRNA, 1 hour exposure", "value": "sensitized"}, {"measurement": "clonogenic sensitivity after XRCC1 knockdown", "setting": "[3]", "value": "sensitized"}]}, {"smiles": "N.N.[Cl][Pt][Cl]", "note": "[cisplatin]", "values": [{"measurement": "clonogenic sensitivity after stable Artemis knockdown", "setting": "[2]; PEO1 shRNA lines, continuous exposure", "value": "conferred resistance"}]}]}
